Source: patent US10844038B2, “1,2-dithiolane compounds useful in neuroprotection, autoimmune and cancer diseases and conditions” (SABILA BIOSCIENCES LLC, priority 2016, dated 2020)
pIC50: −log10 of the molar value.

What was measured:
[1] = target: FRK (Homo sapiens (Human), UniProt P42685); assay: Radioisotope filter binding assay; assay type: biochemical; conditions: read-out: IC50 Activity Levels Against FRK Family Kinases: FRK
Summary of the method: (§1)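 Readout is 33P-labelled product captured on P81 ion-exchange filter after washing off unreacted phosphate. Reactions contained kinase, substrate, cofactors and test compound in pH 7.5 Hepes/MgCl2 buffer with 1% DMSO, run 2 h at room temperature after 20 min compound preincubation.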

[2] = target: AurA (Homo sapiens (Human), UniProt O14965); assay: Radioisotope filter binding assay; assay type: biochemical; conditions: read-out: IC50 Activity Levels Against RTKs (c-Kit, RET, HER4) and AurA, CHK2 Kinases: AurA
Sequence of AurA (O14965 whole entry): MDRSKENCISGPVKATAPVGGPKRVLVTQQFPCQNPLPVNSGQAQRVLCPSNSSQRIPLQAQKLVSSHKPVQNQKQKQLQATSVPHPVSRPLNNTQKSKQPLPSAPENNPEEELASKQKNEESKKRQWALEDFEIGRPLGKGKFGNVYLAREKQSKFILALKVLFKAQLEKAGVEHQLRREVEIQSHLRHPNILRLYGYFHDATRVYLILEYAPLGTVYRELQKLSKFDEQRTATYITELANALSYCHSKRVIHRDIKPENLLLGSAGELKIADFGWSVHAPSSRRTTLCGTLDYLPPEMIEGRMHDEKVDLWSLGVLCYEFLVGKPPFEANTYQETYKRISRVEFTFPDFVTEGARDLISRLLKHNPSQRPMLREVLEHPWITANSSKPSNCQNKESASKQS
Summary of the method: as §1

Sequence of FRK (P42685 whole entry): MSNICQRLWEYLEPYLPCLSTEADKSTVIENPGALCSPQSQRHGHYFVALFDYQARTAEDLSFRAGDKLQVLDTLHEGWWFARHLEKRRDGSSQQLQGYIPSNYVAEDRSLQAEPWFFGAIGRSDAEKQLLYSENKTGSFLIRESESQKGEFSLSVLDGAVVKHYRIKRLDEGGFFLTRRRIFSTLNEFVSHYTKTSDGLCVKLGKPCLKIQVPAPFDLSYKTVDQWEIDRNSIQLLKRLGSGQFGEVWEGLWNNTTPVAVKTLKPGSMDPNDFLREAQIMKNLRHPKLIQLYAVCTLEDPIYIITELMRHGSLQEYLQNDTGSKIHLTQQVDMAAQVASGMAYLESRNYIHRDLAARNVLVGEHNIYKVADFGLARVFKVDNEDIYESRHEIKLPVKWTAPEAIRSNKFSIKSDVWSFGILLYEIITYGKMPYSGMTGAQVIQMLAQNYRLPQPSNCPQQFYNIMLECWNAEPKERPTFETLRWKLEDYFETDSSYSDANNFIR

| Compound | pIC50 [1] | pIC50 [2] |
| --- | --- | --- |
| Nc1ncnc2c1c(-c1ccc(Oc3ccccc3)cc1)nn2C[C@H]1SSC[C@@H]1O [43 B.] | 7.00 to 8.30 |  |
| Nc1ncnc2c1c(-c1ccc(Oc3ccccc3)cc1)nn2C[C@H]1SSC[C@H]1O [46 B.] |  | 6.00 to 7.00 |
